Numbers after ± are expanded uncertainties.
Assay: xn = mol fraction of the nth substance listed
Conditions: 101.33 kPa, Liquid

## CC(Cl)(Cl)Cl [1,1,1-trichloroethane] + CCCCCCCO
293.15 K, x2 = 0.103
  mass density: 1252.2 ± 0.93 kg/m3
293.15 K, x2 = 0.1048
  viscosity: 0.996 ± 0.014 mPa·s
293.15 K, x2 = 0.1615
  mass density: 1214.95 ± 0.86 kg/m3
293.15 K, x2 = 0.2027
  viscosity: 1.224 ± 0.017 mPa·s
293.15 K, x2 = 0.2047
  mass density: 1188.54 ± 0.82 kg/m3
293.15 K, x2 = 0.2545
  mass density: 1159.2 ± 0.77 kg/m3
293.15 K, x2 = 0.3034
  viscosity: 1.529 ± 0.021 mPa·s
293.15 K, x2 = 0.309
  mass density: 1128.37 ± 0.73 kg/m3
293.15 K, x2 = 0.3514
  mass density: 1105.21 ± 0.7 kg/m3
293.15 K, x2 = 0.3542
  viscosity: 1.714 ± 0.023 mPa·s
293.15 K, x2 = 0.398
  viscosity: 1.895 ± 0.025 mPa·s
293.15 K, x2 = 0.4022
  mass density: 1078.45 ± 0.67 kg/m3
293.15 K, x2 = 0.5016
  mass density: 1028.73 ± 0.62 kg/m3
293.15 K, x2 = 0.503
  viscosity: 2.426 ± 0.033 mPa·s
293.15 K, x2 = 0.5509
  mass density: 1005.32 ± 0.58 kg/m3
293.15 K, x2 = 0.5533
  viscosity: 2.729 ± 0.036 mPa·s
293.15 K, x2 = 0.58
  mass density: 991.84 ± 0.57 kg/m3
293.15 K, x2 = 0.5993
  viscosity: 3.043 ± 0.041 mPa·s
293.15 K, x2 = 0.6573
  mass density: 957.28 ± 0.56 kg/m3
293.15 K, x2 = 0.6724
  mass density: 950.85 ± 0.56 kg/m3
293.15 K, x2 = 0.6811
  viscosity: 3.69 ± 0.049 mPa·s
293.15 K, x2 = 0.7416
  viscosity: 4.217 ± 0.057 mPa·s
293.15 K, x2 = 0.7421
  mass density: 921.42 ± 0.58 kg/m3
293.15 K, x2 = 0.7937
  mass density: 900.46 ± 0.59 kg/m3
293.15 K, x2 = 0.7956
  viscosity: 4.783 ± 0.064 mPa·s
293.15 K, x2 = 0.8459
  mass density: 879.86 ± 0.6 kg/m3
293.15 K, x2 = 0.9003
  viscosity: 5.912 ± 0.077 mPa·s
293.15 K, x2 = 0.9027
  mass density: 858.15 ± 0.62 kg/m3
298.15 K, x2 = 0.103
  mass density: 1244.75 ± 0.91 kg/m3
298.15 K, x2 = 0.1048
  viscosity: 0.914 ± 0.013 mPa·s
298.15 K, x2 = 0.1615
  mass density: 1207.9 ± 0.85 kg/m3
298.15 K, x2 = 0.2027
  viscosity: 1.11 ± 0.015 mPa·s
298.15 K, x2 = 0.2047
  mass density: 1181.77 ± 0.81 kg/m3
298.15 K, x2 = 0.2545
  mass density: 1152.74 ± 0.76 kg/m3
298.15 K, x2 = 0.3034
  viscosity: 1.379 ± 0.019 mPa·s
298.15 K, x2 = 0.309
  mass density: 1122.23 ± 0.72 kg/m3
298.15 K, x2 = 0.3514
  mass density: 1099.32 ± 0.69 kg/m3
298.15 K, x2 = 0.3542
  viscosity: 1.539 ± 0.021 mPa·s
298.15 K, x2 = 0.398
  viscosity: 1.699 ± 0.023 mPa·s
298.15 K, x2 = 0.4022
  mass density: 1072.77 ± 0.66 kg/m3
298.15 K, x2 = 0.5016
  mass density: 1023.53 ± 0.61 kg/m3
298.15 K, x2 = 0.503
  viscosity: 2.14 ± 0.029 mPa·s
298.15 K, x2 = 0.5509
  mass density: 1000.35 ± 0.57 kg/m3
298.15 K, x2 = 0.5533
  viscosity: 2.393 ± 0.032 mPa·s
298.15 K, x2 = 0.58
  mass density: 986.98 ± 0.57 kg/m3
298.15 K, x2 = 0.5993
  viscosity: 2.664 ± 0.036 mPa·s
298.15 K, x2 = 0.6573
  mass density: 952.71 ± 0.57 kg/m3
298.15 K, x2 = 0.6724
  mass density: 946.34 ± 0.57 kg/m3
298.15 K, x2 = 0.6811
  viscosity: 3.196 ± 0.043 mPa·s
298.15 K, x2 = 0.7416
  viscosity: 3.629 ± 0.049 mPa·s
298.15 K, x2 = 0.7421
  mass density: 917.17 ± 0.58 kg/m3
298.15 K, x2 = 0.7937
  mass density: 896.37 ± 0.59 kg/m3
298.15 K, x2 = 0.7956
  viscosity: 4.09 ± 0.056 mPa·s
298.15 K, x2 = 0.8459
  mass density: 875.95 ± 0.61 kg/m3
298.15 K, x2 = 0.9003
  viscosity: 5.018 ± 0.068 mPa·s
298.15 K, x2 = 0.9027
  mass density: 854.41 ± 0.63 kg/m3
303.15 K, x2 = 0.103
  mass density: 1237.24 ± 0.9 kg/m3
303.15 K, x2 = 0.1048
  viscosity: 0.858 ± 0.012 mPa·s
303.15 K, x2 = 0.1615
  mass density: 1200.8 ± 0.84 kg/m3
303.15 K, x2 = 0.2027
  viscosity: 1.014 ± 0.014 mPa·s
303.15 K, x2 = 0.2047
  mass density: 1174.93 ± 0.8 kg/m3
303.15 K, x2 = 0.2545
  mass density: 1146.2 ± 0.75 kg/m3
303.15 K, x2 = 0.3034
  viscosity: 1.245 ± 0.017 mPa·s
303.15 K, x2 = 0.309
  mass density: 1116.01 ± 0.71 kg/m3
303.15 K, x2 = 0.3514
  mass density: 1093.32 ± 0.68 kg/m3
303.15 K, x2 = 0.3542
  viscosity: 1.388 ± 0.019 mPa·s
303.15 K, x2 = 0.398
  viscosity: 1.526 ± 0.021 mPa·s
303.15 K, x2 = 0.4022
  mass density: 1067.06 ± 0.65 kg/m3
303.15 K, x2 = 0.5016
  mass density: 1018.27 ± 0.6 kg/m3
303.15 K, x2 = 0.503
  viscosity: 1.907 ± 0.026 mPa·s
303.15 K, x2 = 0.5509
  mass density: 995.29 ± 0.57 kg/m3
303.15 K, x2 = 0.5533
  viscosity: 2.127 ± 0.029 mPa·s
303.15 K, x2 = 0.58
  mass density: 982.04 ± 0.57 kg/m3
303.15 K, x2 = 0.5993
  viscosity: 2.353 ± 0.032 mPa·s
303.15 K, x2 = 0.6573
  mass density: 948.09 ± 0.57 kg/m3
303.15 K, x2 = 0.6724
  mass density: 941.77 ± 0.57 kg/m3
303.15 K, x2 = 0.6811
  viscosity: 2.791 ± 0.038 mPa·s
303.15 K, x2 = 0.7416
  viscosity: 3.141 ± 0.043 mPa·s
303.15 K, x2 = 0.7421
  mass density: 912.86 ± 0.58 kg/m3
303.15 K, x2 = 0.7937
  mass density: 892.23 ± 0.59 kg/m3
303.15 K, x2 = 0.7956
  viscosity: 3.495 ± 0.048 mPa·s
303.15 K, x2 = 0.8459
  mass density: 871.97 ± 0.61 kg/m3
303.15 K, x2 = 0.9003
  viscosity: 4.297 ± 0.059 mPa·s
303.15 K, x2 = 0.9027
  mass density: 850.61 ± 0.63 kg/m3

Source: the NIST ThermoML archive (doi:10.1021/je0501890)
